Results published in ChEMBL document CHEMBL1201862, “PubChem BioAssay data set” (2004).
Active and inactive are the calls of the source.

Key:
Streptokinase A = target: T1, Streptokinase A (Streptococcus pyogenes serotype M1, UniProt P10520); experiment: S. pyogenes streptokinase expression inhibitors, potency, dose response, plasminogen activation absorbance, OD405 (AID 1914); type: functional, Streptococcus pyogenes M1 GAS;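 further: secreted streptokinase activity via plasminogen activation per viability signal from cell pellet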
T1 sequence (P10520 whole entry): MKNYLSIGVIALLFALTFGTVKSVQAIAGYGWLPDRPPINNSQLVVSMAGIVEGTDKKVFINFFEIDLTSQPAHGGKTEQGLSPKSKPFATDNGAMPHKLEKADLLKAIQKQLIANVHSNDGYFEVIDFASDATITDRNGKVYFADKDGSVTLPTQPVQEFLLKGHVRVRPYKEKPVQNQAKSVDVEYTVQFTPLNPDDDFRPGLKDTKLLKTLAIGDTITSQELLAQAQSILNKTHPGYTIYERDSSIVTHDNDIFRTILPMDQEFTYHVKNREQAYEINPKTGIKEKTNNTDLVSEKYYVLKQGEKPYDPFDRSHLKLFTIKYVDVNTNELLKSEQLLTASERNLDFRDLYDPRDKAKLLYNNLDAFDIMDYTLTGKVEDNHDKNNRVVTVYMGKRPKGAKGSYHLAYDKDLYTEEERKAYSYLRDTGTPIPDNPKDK

[1] = THP-1 cell cytotoxicity, dose response, cytotoxicity control for non-replicating M. tuberculosis project (AID 489025); type: functional
Streptococcus = experiment: Group A Streptococcus viability loss, dose response, counter-screen for streptokinase expression inhibitor project, luminescence, BacTiterGlo (AID 1915); type: functional, organism-based;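 further: potency for reduction of bacterial viability or growth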
[2] = HepG2 cell cytotoxicity, dose response, cytotoxicity control for non-replicating M. tuberculosis project (AID 489018); type: functional; settings: Mycobacterium tuberculosis
[3] = Vero E6 cell cytotoxicity, dose response, cytotoxicity control for non-replicating M. tuberculosis project, secondary assay (AID 492998); type: functional, VeroE6; settings: Vero C1008
[4] = Luminescence Cell-Based Dose Retest to Confirm Inhibitors of Cancer Stem Cells. [Related pubchem assays (depositor defined):AID2717, AID2721]; type: functional; settings: Homo sapiens
[5] = system: Streptococcus sp. 'group A'; experiment: growth inhibition of control SK(-) GAS strain, dose response, counter-screen for streptokinase expression inhibitor project, luminescence, kanamycin, BacTiterGlo, confirmation (AID 1900); type: functional, organism-based
cells = type: functional
Paired box protein Pax-8 = Paired box protein Pax-8 (Homo sapiens, UniProt Q06710); experiment: inhibitors of PAX8-driven TPO luciferase reporter, dose response, RMG-I cells, cherry-pick (AID 687027); type: functional, cell-based;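 further: luciferase reporter driven by Pax8 target thyroperoxidase promoter measured by SteadyGlo luminescence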
Chain of Paired box protein Pax-8 (Q06710 whole entry): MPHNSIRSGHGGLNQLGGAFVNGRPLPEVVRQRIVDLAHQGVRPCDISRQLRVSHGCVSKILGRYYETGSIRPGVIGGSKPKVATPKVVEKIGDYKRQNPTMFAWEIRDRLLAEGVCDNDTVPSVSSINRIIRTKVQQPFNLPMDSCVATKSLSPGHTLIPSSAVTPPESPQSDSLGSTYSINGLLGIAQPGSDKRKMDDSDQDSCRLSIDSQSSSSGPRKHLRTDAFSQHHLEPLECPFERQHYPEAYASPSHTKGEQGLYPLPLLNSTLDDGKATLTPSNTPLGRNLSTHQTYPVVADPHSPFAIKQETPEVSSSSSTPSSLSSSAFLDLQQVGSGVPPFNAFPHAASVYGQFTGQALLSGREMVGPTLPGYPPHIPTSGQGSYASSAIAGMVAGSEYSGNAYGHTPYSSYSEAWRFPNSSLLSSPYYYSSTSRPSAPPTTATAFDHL

HEK293 [6] = experiment: cells; type: functional, cell-based; settings: Homo sapiens
HEK293 [7] = experiment: NOD1 signaling inhibitors, primary screen, cell-based, luminescence, uHTS (AID 1578); type: functional; settings: Homo sapiens
HEK293 [8] = experiment: cells; type: functional, cell-based; settings: Homo sapiens; remark: listed apart in the source
[9] = cytotoxicity in HEK-293T cells, dose response, cytotoxicity control for TCR NF-kB inhibitor project, luminescence, T-cell screen hits (AID 489026); type: functional, cell-based;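 further: cells exposed to compound about 14 hours before the viability readout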
HEK293 [10] = experiment: NOD2 signaling inhibitors in MDP-stimulated cells, cell-based, uHTS, luminescence (AID 2001); type: functional; settings: Homo sapiens
[11] = Shn3 3'UTR reporter inhibitors, dose response, cell-based, Clone20 osteoblasts, firefly luciferase, cherry-picked (AID 624132); type: functional;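 further: firefly luciferase luminescence from reporter carrying the Shn3 3'UTR in osteoblasts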
Vero [12] = experiment: Vero cell cytotoxicity, cytotoxicity control for flavivirus capping enzyme inhibitors (AID 588742); type: functional; settings: Chlorocebus sabaeus
Genome polyprotein = Genome polyprotein (dengue virus type 2, UniProt P29990); experiment: Dengue-2 NS5 methyltransferase inhibitors, primary screen, biochemical, confirmation dose response (AID 588689); type: functional
[13] = HepG2 cell cytotoxicity, dose response, cytotoxicity control for Shn3 inhibitor project, CellTiter-Glo, cherry-picked (AID 624134); type: functional, cell-based
[14] = control 3'UTR Renilla luciferase suppression, dose response, counter-screen for Shn3 inhibitor project, cell-based, Clone20-Shn3RL, cherry-picked (AID 624133); type: functional
[15] = cytotoxicity toward NIH3T3 fibroblasts, dose response, counter-screen, cell-based, ATP luminescence, mouse fibroblasts (AID 2010); type: functional;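 further: cells exposed to compound for about 90 hours before reading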
[16] = target: T2, Type-1 angiotensin II receptor (Homo sapiens, UniProt P30556); experiment: AT1 receptor antagonists, dose response, selectivity assay for APJ receptor antagonist project, cell-based, uHTS hits (AID 463214); type: functional;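 further: antagonist potency against angiotensin II stimulated AT1 response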
T2 sequence (P30556 whole entry): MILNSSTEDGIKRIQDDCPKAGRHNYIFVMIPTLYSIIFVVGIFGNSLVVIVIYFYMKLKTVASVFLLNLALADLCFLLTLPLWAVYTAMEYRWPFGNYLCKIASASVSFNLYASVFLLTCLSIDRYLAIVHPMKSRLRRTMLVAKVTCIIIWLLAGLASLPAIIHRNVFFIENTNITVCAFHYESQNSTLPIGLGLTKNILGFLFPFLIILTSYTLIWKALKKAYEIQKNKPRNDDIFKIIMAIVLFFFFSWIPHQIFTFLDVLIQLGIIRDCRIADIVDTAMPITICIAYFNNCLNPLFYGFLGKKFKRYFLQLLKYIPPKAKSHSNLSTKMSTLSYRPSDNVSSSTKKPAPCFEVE

Fatty acid synthase [17] = target: T3, Fatty acid synthase (Homo sapiens, UniProt P49327); experiment: FAS thioesterase domain inhibitors, dose response, biochemical, endpoint fluorescence intensity, uHTS hits (AID 624327); type: functional;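 further: fluorescence from hydrolysis of an O-methyl fluorescein acyl ester substrate by the enzyme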
T3 sequence (P49327 whole entry, the tested form may be a part): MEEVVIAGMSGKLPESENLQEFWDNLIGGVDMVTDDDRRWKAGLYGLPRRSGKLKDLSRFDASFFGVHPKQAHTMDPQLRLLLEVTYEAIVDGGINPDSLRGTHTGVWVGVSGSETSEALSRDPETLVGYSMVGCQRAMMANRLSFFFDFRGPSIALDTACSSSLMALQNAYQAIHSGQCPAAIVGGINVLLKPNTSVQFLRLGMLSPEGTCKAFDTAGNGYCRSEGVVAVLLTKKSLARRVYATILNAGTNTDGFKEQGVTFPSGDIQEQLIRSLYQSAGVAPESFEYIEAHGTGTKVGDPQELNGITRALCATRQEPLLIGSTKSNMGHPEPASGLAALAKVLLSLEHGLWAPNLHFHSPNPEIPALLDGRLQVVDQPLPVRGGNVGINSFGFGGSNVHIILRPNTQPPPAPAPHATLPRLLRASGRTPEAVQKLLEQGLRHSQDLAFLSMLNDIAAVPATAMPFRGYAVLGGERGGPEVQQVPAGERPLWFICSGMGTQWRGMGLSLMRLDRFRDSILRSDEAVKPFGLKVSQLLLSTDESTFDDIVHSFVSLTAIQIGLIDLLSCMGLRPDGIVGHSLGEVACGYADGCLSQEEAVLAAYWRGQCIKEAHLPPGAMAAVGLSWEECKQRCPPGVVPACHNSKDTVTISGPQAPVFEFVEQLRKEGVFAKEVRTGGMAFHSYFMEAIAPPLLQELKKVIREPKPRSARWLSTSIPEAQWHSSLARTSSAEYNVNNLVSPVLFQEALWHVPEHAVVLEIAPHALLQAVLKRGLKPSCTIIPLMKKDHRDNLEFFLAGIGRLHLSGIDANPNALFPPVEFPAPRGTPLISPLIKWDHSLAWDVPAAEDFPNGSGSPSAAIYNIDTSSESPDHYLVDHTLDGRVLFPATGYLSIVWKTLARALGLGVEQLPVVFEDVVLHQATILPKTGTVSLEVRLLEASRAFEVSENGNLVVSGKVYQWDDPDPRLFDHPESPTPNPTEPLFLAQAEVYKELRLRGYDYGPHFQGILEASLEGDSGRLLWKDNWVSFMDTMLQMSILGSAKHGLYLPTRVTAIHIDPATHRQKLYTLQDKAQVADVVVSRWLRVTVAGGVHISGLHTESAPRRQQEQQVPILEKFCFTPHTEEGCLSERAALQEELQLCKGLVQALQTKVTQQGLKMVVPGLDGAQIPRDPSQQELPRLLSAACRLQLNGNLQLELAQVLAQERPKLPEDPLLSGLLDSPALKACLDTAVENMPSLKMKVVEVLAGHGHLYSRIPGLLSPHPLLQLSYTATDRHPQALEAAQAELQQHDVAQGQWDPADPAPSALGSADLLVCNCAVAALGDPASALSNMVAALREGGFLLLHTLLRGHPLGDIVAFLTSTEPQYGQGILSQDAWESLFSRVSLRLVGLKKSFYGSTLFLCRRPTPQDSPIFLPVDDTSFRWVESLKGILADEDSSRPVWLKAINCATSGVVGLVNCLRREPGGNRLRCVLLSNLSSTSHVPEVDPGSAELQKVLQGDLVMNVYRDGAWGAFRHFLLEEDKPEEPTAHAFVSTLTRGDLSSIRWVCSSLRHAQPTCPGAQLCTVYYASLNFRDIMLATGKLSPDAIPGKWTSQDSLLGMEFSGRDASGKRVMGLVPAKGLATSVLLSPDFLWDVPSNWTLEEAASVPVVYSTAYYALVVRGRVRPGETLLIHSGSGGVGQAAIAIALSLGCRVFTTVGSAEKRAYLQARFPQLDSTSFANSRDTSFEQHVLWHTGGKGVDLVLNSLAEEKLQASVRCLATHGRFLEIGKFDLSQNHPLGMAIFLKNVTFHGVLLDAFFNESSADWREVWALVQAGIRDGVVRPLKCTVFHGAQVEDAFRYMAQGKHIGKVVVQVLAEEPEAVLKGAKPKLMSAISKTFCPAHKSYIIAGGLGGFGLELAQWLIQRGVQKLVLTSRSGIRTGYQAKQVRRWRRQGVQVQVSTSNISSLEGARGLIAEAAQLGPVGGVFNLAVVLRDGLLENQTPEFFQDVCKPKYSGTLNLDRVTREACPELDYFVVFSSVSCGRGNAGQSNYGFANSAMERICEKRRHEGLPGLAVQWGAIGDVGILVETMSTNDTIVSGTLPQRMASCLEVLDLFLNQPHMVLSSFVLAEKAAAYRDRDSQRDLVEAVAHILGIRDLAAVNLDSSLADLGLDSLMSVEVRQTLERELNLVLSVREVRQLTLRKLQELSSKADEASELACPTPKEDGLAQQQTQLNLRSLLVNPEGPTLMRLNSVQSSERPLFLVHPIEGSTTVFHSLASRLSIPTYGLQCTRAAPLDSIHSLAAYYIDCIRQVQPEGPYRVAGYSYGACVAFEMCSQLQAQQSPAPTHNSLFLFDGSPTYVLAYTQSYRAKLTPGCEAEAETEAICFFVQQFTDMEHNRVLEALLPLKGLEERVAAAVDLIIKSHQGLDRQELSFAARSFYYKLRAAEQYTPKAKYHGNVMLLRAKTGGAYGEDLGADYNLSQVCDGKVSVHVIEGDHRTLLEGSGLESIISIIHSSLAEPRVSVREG

[18] = target: Glucose-6-phosphate 1-dehydrogenase (Homo sapiens, UniProt P11413); experiment: human G6PD enzyme inhibitors, dose response, selectivity assay for P. falciparum G6PD inhibitor project, biochemical, fluorescence (AID 504792); type: functional
Chain of Glucose-6-phosphate 1-dehydrogenase (P11413 whole entry): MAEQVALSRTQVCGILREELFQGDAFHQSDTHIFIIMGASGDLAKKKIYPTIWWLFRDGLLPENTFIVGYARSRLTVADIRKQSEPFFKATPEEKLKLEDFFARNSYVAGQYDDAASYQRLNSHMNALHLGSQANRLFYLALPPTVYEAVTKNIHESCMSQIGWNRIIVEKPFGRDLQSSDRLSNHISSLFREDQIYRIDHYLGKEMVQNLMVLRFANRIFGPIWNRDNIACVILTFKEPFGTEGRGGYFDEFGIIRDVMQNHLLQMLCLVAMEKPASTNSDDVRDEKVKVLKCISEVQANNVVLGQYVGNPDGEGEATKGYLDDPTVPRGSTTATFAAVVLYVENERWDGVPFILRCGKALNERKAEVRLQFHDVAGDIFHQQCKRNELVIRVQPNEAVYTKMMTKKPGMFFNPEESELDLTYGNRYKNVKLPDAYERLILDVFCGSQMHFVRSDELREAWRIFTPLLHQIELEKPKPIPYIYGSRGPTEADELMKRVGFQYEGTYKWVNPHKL

[19] = inhibitors of intracellular T. cruzi replication, confirmation, NIH3T3 host cells, beta-gal luminescence (AID 2044); type: functional, cell-based;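 further: intracellular parasites grown in NIH/3T3 mouse fibroblasts as host cells; luminescent beta-galactosidase reporter signal from transgenic T. cruzi replicating inside host cells; inhibitors lower the luminescence signal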
Fatty acid synthase [20] = target: T3, Fatty acid synthase; experiment: FAS thioesterase domain inhibitors, dose response, biochemical, kinetic fluorescence intensity (AID 624326); type: functional;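 further: rate of fluorescence rise from hydrolysis of a fluorogenic O-methyl fluorescein ester substrate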
Beta-galactosidase = Beta-galactosidase (Escherichia coli, UniProt Q8VNN2); experiment: PubChem AID 485352; type: functional
Chain of Beta-galactosidase (Q8VNN2 whole entry): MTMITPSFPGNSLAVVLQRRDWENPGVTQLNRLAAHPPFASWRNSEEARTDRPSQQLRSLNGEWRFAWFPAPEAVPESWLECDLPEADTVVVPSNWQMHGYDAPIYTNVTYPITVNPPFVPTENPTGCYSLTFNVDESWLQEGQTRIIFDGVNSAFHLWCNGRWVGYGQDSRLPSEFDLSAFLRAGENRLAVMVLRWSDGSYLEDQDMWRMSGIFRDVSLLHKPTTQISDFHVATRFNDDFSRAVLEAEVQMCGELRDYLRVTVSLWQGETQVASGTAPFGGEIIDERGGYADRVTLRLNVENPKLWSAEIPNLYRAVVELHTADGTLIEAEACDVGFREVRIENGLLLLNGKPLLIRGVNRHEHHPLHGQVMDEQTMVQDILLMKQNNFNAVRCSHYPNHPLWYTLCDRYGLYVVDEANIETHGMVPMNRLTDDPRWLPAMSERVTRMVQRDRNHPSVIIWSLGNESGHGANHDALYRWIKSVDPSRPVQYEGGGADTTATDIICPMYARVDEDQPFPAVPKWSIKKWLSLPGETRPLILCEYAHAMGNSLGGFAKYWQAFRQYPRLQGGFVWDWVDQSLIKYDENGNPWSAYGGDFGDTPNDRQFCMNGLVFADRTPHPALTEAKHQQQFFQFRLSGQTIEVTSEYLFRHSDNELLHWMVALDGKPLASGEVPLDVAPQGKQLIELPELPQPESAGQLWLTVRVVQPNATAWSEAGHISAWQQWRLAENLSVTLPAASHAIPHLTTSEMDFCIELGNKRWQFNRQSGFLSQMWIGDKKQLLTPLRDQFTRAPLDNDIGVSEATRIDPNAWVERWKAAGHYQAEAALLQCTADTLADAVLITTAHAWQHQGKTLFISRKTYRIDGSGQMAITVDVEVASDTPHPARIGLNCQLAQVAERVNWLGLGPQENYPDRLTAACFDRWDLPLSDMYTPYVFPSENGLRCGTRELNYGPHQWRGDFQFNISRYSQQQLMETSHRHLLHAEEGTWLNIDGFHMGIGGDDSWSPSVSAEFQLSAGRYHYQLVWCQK

Vero [21] = experiment: cells; type: functional, cell-based; settings: Chlorocebus sabaeus
[22] = insulin promoter down-regulators in MIN6 cells, imaging, high-content screening, mouse beta cells (AID 1628); type: functional
[23] = cytotoxicity in MIN6 insulinoma cells, dose response, cytotoxicity control, cell-based, mouse insulinoma (AID 2122); type: functional;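 further: confirmatory high-throughput counterscreen run to flag cytotoxic compounds; mouse MIN-6 beta cells carrying an insulin promoter eGFP reporter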

O=C(NC12CC3CC(CC(C3)C1)C2)c1ccc([N+](=O)[O-])o1
EC50 (Streptokinase A): > 150 µM (not active)
CC50 [1]: 12.4 µM (active)
EC50 (Streptococcus): 7.69 µM (active)
CC50 [2]: 10.4 µM (active)
CC50 [3]: 14.6 µM (active)
AC50 [4]: 5.23 µM (active)
EC50 [5]: 1.2 µM (active)
IC50 (cells): 7.14 µM (active)
AC50 (Paired box protein Pax-8): 4.39 µM (active)

O=C(Nc1ccc(Cc2ccncc2)cc1)c1ccc(S(=O)(=O)N2CCCC2)cc1
IC50 (HEK293 [6]): 4.59 µM (active)
EC50 (HEK293 [7]): 2.66 µM (active)
IC50 (HEK293 [8]): 13.6 µM (active)
IC50 [9]: 33.4 µM (inactive)
IC50 (HEK293 [10]): 5.81 µM (active)

CC(=O)OCCCNc1cc(Sc2nc3ccccc3s2)c2nonc2c1[N+](=O)[O-]
EC50 (Streptokinase A): > 150 µM (not active)
AC50 [11]: 4.7 µM (active)
CC50 (Vero [12]): 16.8 µM (active)
EC50 (Streptococcus): 3.7 µM (active)
IC50 (Genome polyprotein): > 100 µM (active)
AC50 [13]: 24.4 µM (active)
AC50 [14]: 11.3 µM (active)
EC50 [15]: 4.76 µM (active)
IC50 [16]: 2.06 µM (active)
EC50 [5]: 3.26 µM (active)
IC50 (Fatty acid synthase [17]): 2.08 µM (active)
IC50 [18]: > 80 µM (inactive)
EC50 [19]: 1.38 µM (active)
IC50 (Fatty acid synthase [20]): 1.35 µM (active)
EC50 (Beta-galactosidase): > 40 µM (inactive)

CC(C)(C)c1ccc(C(=O)NC(=S)Nc2sc3c(c2C#N)CCC3)cc1
IC50 (Vero [21]): > 25 µM (active)

CCOC(=O)N1CCC(N(C(=O)Nc2ccc(Cl)c(Cl)c2)C(C)CC)CC1 (configuration not stated)
IC50 [22]: 2.7 µM (active)
IC50 [23]: 2.45 µM (active)
